Experimental data from publication PMC5030359, “Cathelicidin Antimicrobial Peptides with Reduced Activation of Toll-Like Receptor Signaling Have Potent Bactericidal Activity against Colistin-Resistant Bacteria” (mBio, 2016).
Converted amounts (≈) assume the structure as drawn. Peptide text beside a SMILES is read from it.

Key:
V. cholerae = type: cell-based, Vibrio cholerae; conditions: 5 min with 100 µM ampicillin or 4 µM SMAP-29D, relative to PBS control cells
Method: (§1) The number of CFU of E. cloacae 4080 were quantified as a function of time of incubation with a 2 µM concentration of the individual peptides. In the reactions with kanamycin (Kan), 25 µg/ml of kanamycin sulfate was used. […] The initial inoculum was 10^6 CFU in LB. […] (D to F) Fluorescence microscopy of V. vulnificus cells. […] An enlarged image of a single cell is highlighted in the boxed region. White arrows denote bulges extending from the bacterial membrane. […] Bacterial DNA is stained with DAPI (blue). […] The fate of cellular cytoplasmic contents was tracked following expression of a FliM-tdTomato fusion protein (red).

V. vulnificus = type: cell-based, Vibrio vulnificus; conditions: 5 min with 100 µM ampicillin or 4 µM SMAP-29D, relative to PBS control cells
Method: as §1

V. fischeri = experiment: Bacterial killing, colony formation (CFU); type: cell-based; conditions: 2 µM peptide, 30 min incubation
V. angustum = experiment: Bacterial killing, colony formation (CFU); type: cell-based; conditions: 2 µM peptide, 30 min incubation
E. cloacae 4080 = experiment: Bacterial killing, colony formation (CFU); type: cell-based, Enterobacter cloacae
Method: The number of CFU of E. cloacae 4080 were quantified as a function of time of incubation with a 2 µM concentration of the individual peptides. In the reactions with kanamycin (Kan), 25 µg/ml of kanamycin sulfate was used. […] The initial inoculum was 10^6 CFU in LB.

K. pneumoniae = experiment: Bacterial killing, colony formation (CFU); type: cell-based, Klebsiella pneumoniae
Method: A total of 1 × 10^5 CFU of the bacteria were incubated for 30 min with the concentration of peptide or colistin shown. Approximately 500 CFU was then added as a droplet onto nonselective media for 18 h. […] The number shown is the median value of three or four independent assays. The number in parentheses is the standard deviation of all of the assays. […] (C) Quantitative analysis of the viable colonies formed by colistin-resistant bacteria. […] The numbers are the means of three independent assays, and those in parentheses are the range for 1 standard deviation.

E. coli = type: cell-based, Escherichia coli; conditions: 2 µM peptide
Method: A total of 1 × 10^5 CFU of the bacteria were incubated for 30 min with the concentration of peptide or colistin shown. Approximately 500 CFU was then added as a droplet onto nonselective media for 18 h. […] The number shown is the median value of three or four independent assays. The number in parentheses is the standard deviation of all of the assays. […] The numbers are the means of three independent assays, and those in parentheses are the range for 1 standard deviation.
Incubation time: 0 min 5 min 30 min

[1] = broth microdilution, CAMHB, at least three independent assays
[2] = 2 µM peptide, 30 min incubation

Method for 19 Gram-negative strains: (A) Sequences of the cathelicidins, the numbers of bacterial strains killed, and hRBC lysis by the cathelicidins. […] The bacterial species tested are Klebsiella pneumoniae (K. p.), Serratia marcescens (S. m.), Enterobacter cloacae (E. cl.), Escherichia coli (E. c.), and Pseudomonas aeruginosa (P. a.). MICs were determined by the microdilution assay. […] The results are the median values of at least three independent assays.
We tested a panel of cathelicidins for inhibiting growth of 19 Gram-negative strains from the family Enterobacteriaceae and the nonfermentative bacteria. The species tested were Enterobacter cloacae ([2]), Escherichia coli ([5]), Klebsiella pneumoniae ([4]), Pseudomonas aeruginosa ([4]), and Serratia marcescens ([4]). All of the strains selected have been characterized for their antibiotic resistance profiles.
(§2) Antimicrobial activity was determined using the broth microdilution method based on the guidelines of the Clinical and Laboratory Standards Institute (CLSI) ([39]), using cation-adjusted Mueller-Hinton broth (CAMHB) as the testing medium. Reference Gram-positive and Gram-negative bacteria were tested, including both enteric and Pseudomonas aeruginosa strains. Each MIC was determined in at least three independent assays.
Method for E. faecalis: as §2
Method for Enterobacter cloacae: (§3) The bacterial species tested are Klebsiella pneumoniae (K. p.), Serratia marcescens (S. m.), Enterobacter cloacae (E. cl.), Escherichia coli (E. c.), and Pseudomonas aeruginosa (P. a.). MICs were determined by the microdilution assay. […] The results are the median values of at least three independent assays.
as §2
Method for Escherichia coli: as §3, §2
Method for S. aureus: as §2
Method for Serratia marcescens: as §3, §2

**Q.** Which “reduction in CFU, V. cholerae” value (V. cholerae) does the source give for `CC1(C)S[C@@H]2[C@H](NC(=O)[C@H](N)c3ccccc3)C(=O)N2[C@H]1C(=O)O` [ampicillin] here?
**A.** less than 1 log10 unit

**Q.** And the “reduction in CFU, V. vulnificus” value (V. vulnificus)?
**A.** less than 1 log10 unit

**Q.** Which results are given for `CC[C@H](C)[C@H](NC(=O)[C@@H](NC(=O)[C@@H]1CCCN1C(=O)[C@H](CO)NC(=O)[C@H](CC(C)C)NC(=O)[C@H](CCCCN)NC(=O)[C@H](CCCCN)NC(=O)[C@H](Cc1ccccc1)NC(=O)[C@H](CC(C)C)NC(=O)[C@H](CCCCN)NC(=O)[C@H](CCCCN)NC(=O)[C@H](CC(C)C)NC(=O)[C@H](CCCCN)NC(=O)[C@H](CCCCN)NC(=O)[C@H](CCCNC(=N)N)NC(=O)[C@H](CC(C)C)NC(=O)[C@H](CCCNC(=N)N)NC(=O)[C@H](CCCCN)NC(=O)[C@H](Cc1ccccc1)NC(=O)[C@H](CCCNC(=N)N)NC(=O)CN)C(C)C)C(=O)N1CCC[C@H]1C(=O)N[C@@H](CC(C)C)C(=O)N[C@@H](CC(C)C)C(=O)N[C@@H](Cc1c[nH]cn1)C(=O)N[C@@H](CC(C)C)C(=O)NCC(=O)O` [BMAP-27B] (H-GRFKRLRKKLKKLFKKLSPVIPLLHLG-OH)?
**A.** MIC E. faecalis 29212 (E. faecalis): >32 µg/mL; MIC E. faecalis 51299 (E. faecalis): >32 µg/mL; # strains inhibited at 16 µg/ml peptide P. a. (Pseudomonas aeruginosa): 4/4; MIC P. aeruginosa 4083 (Pseudomonas aeruginosa): 4 µg/mL (≈ 1.24 µM); MIC P. aeruginosa PAO1 (Pseudomonas aeruginosa): 4 µg/mL (≈ 1.24 µM); MIC P. aeruginosa PAO1 ΔOprD (Pseudomonas aeruginosa; [1]): 4 µg/mL (≈ 1.24 µM); CFU/ml (SD) V. fischeri, 30 min (V. fischeri): < 20 CFU/ml; Fold redu. from To, V. fischeri, 30 min (V. fischeri): > 48,000 fold; # strains inhibited at 16 µg/ml peptide S. m. (Serratia marcescens): 3/3; CFU/ml (SD) V. angustum, 30 min (V. angustum): 27 CFU/ml; Fold redu. from To, V. angustum, 30 min (V. angustum): > 88,460 fold; No. of strains inhibited at 16 µg/ml/total no. of strains (19 Gram-negative strains): 19/19; Fold redu. from To, En. cloacae 4080, 5 min (E. cloacae 4080): 2400; Fold redu. from To, En. cloacae 4080, 30 min (E. cloacae 4080): > 19,200; CFU/ml (SD) En. cloacae 4080, 5 min (E. cloacae 4080; 2 µM peptide (sub-heading; title says 1 µM), 5 min incubation): < 200 CFU/ml; reduction in CFU, 120 min (E. cloacae 4080; 2 µM peptide, 120-min incubation, E. cloacae): > 4 log10 unit; CFU/ml (SD) En. cloacae 4080, 30 min (E. cloacae 4080; [2]): < 25 CFU/ml; CFU/ml (SD) K. pneumonia 8893, 5 min (K. pneumoniae; 2 µM peptide, 5 min incubation): < 200 CFU/ml; Fold redu. from To, K. pneumonia 8893, 5 min (K. pneumoniae; 2 µM peptide, 5 min incubation): 1050 fold; Fold redu. from To, K. pneumonia C-2, 5 min (K. pneumoniae; 2 µM peptide, 5 min incubation): 25 fold; CFU/ml (SD) K. pneumonia 8893, 30 min (K. pneumoniae; [2]): < 25 CFU/ml; CFU/ml (SD) K. pneumonia C-2, 30 min (K. pneumoniae; [2]): 50 CFU/ml; Fold redu. from To, K. pneumonia 8893, 30 min (K. pneumoniae; [2]): > 8,400 fold; Fold redu. from To, K. pneumonia C-2, 30 min (K. pneumoniae; [2]): > 13,000 fold; reduction in CFU, colistin-resistant K. pneumoniae (K. pneumoniae; 2 µM, Fig. 5C (K. pneumoniae 59) and data not shown): > 2 log10 unit; CFU/ml (SD) E. coli IU-342, 5 min (E. coli; 5 min incubation): < 200 CFU/ml; Fold redu. from To, E. coli IU-342, 5 min (E. coli; 5 min incubation): 850 fold; CFU/ml (SD) E. coli IU-342, 30 min (E. coli; 30 min incubation): < 25 CFU/ml; Fold redu. from To, E. coli IU-342, 30 min (E. coli; 30 min incubation): > 6,800 fold; # strains inhibited at 16 µg/ml peptide E. c. (Escherichia coli): 6/6; MIC E. coli MC4100 (Escherichia coli; [1]): 4 µg/mL (≈ 1.24 µM); # strains inhibited at 16 µg/ml peptide E. cl. (Enterobacter cloacae): 2/2; MIC E. cloacae 4092 (Enterobacter cloacae; [1]): 4 µg/mL (≈ 1.24 µM); MIC S. aureus 25923 (S. aureus): 32 µg/mL (≈ 9.95 µM); MIC S. aureus 29213 (S. aureus): 32 µg/mL (≈ 9.95 µM); # strains inhibited at 16 µg/ml peptide K. p. (Klebsiella pneumoniae): 4/4
